The text below walks through data of patent publication US4440772A, “Acid addition salts of dextrorotatory ergot alkaloids, a process for the preparation thereof as well as their use as medicines” (priority 1978, dated 1984).

Data set [1] is described as follows: acute toxicity (LD50), intraperitoneal administration. The following applies: mouse, in vivo, ip, male mice, 24 hours after administration. The procedure:
The volume of injected solution was 0.01 ml/g of body weight. In the following Table I acute toxicity of dextrorotatory ergot alkaloids in comparison with levorotatory ergot alkaloids 24 hours after the intraperitoneal administration is given.

The subject of data set [2] is arrhythmias induced by adrenalin. Description: effect on arrhythmia induced by adrenalin. The data set is classed as in vivo. The following applies: 2.0 mg/kg intraperitoneally, guinea pigs, adrenalin 0.02 mg/kg intravenously. The procedure:
For experiments, guinea pigs of both sexes, weighing from 400 to 550 g, were used. The narcotized animals (urethane 1.6 g/kg of body weight, intraperitoneally) were at first intravenously administered adrenalin (0.02 mg/kg) and then dextrorotatory ergot alkaloids. 1 hour and 1.5 hours after the administration of dextrorotatory ergot alkaloids, adrenalin was again administered intravenously (0.02 mg/kg) and the presence as well as duration of arrhythmias was ascertained.

Data set [3] concerns alpha-adrenergic receivers of the dilatating pupil muscle. Description: effect on the function of the pupil (mydriatic effect, Polewka's method). Type of data set: in vivo. The note with it: 5 mg/kg intravenously, mouse. The procedure:
The phenomenon of mydriasis induced by ergot alkaloids results from the stimulation of alpha-adrenergic receivers of the dilatating pupil muscle (Z. Votava et al., Arch. int. Pharmacodin. 45, 1958, 114).
The mydriatic effect of dextrorotatory ergot alkaloids administered intravenously was determined with a monocular measuring magnifying glass by Polewka's method (A. R. Turner, Screening Methods in Pharmacology, 1965, p. 174 ff.).
The size of the pupil was measured at first before the administration of the substance and then 15, 30 and 60 minutes after intravenous administration of alkaloids into the mouse tail (dose 5 mg/kg of body weight).

The test system of data set [4] is isolated heart of a guinea pig. The data set is described as follows: effect on isolated heart of a guinea pig, modified Langendorff's method. The text has this:
The effect of dextrorotatory ergot alkaloids according to the invention on heart in vitro was examined on isolated heart of a guinea pig by the modified Langendorff's method (Zalar et al., Poll. Chim. Farmac. 114, 1975, 146). Alkaloids were infused by an apparatus for slow infusion (B. Melsungen).

Data set [5] has as its system spontaneously hypertensive rats. The data set is described as follows: effect on arterial pressure of spontaneously hypertensive rats. The data set is classed as in vivo, rats (variety Okamoto Aoki F32). The procedure: For the experiment groups of 10 spontaneously hypertensive rats (variety Okamoto Aoki F32) of both sexes, weighing from 200 to 250 g, were used. The acid addition salts of said dextrorotatory ergot alkaloids were administered intraperitoneally in doses of 50 mcg/kg of body weight and systolic blood pressure was measured on the rats' tails by means of plethysmographic method (K. Okamoto and K. Aoki, Jap. Circulat. J. 27, 1963, 282).

Data set [6] concerns smooth muscles of blood vessels. The data set is described as follows: effect on blood pressure drop in rats with cut spinal cord. The data set is classed as in vivo, rats (variety Wistar). The following applies: for duration of long-duration hypertension: acid addition salts, 1.5 mg/kg of body weight; for vasoconstrictory effect: contraction of smooth muscles of blood vessels. The text has this:
Rats (variety Wistar) in urethane narcosis were cut their spinal cord in the region of the second cervical vertebra and connected to an artificial breathing apparatus (B. Melsungen). By this intervention the central regulation of blood pressure was eliminated. In so treated animals blood pressure dropped for about 50 mm Hg. The experiment was supposed to show whether the examined substances directly affected the smooth muscles of blood vessels.

[7] abbreviates: control, spontaneously hypertensive rats.
Where [8] appears, read: day 2, 50 mcg/kg intraperitoneally.
Where [9] appears, read: day 4, 50 mcg/kg intraperitoneally.
Where [10] appears, read: day 6, 50 mcg/kg intraperitoneally.
The mark [11] stands for this setting: day 8, 50 mcg/kg intraperitoneally.
Setting [12] is: day 10, 50 mcg/kg intraperitoneally.

Where a name gives a salt, the structure may show the parent alone. Read-outs that look alike come from different tables or passages of the source. Bounds are passed on as bounds.

`CC(C)[C@H]1C(=O)N2CCC[C@H]2[C@]2(O)O[C@](NC(=O)[C@H]3C=C4c5cccc6[nH]cc(c56)C[C@H]4N(C)C3)(C(C)C)C(=O)N12` [ergocorninine methanesulfonate, Ergocorninine methanesulfonate]: the 50% lethal dose (LD50) at 24 h in data set [1] was > 520 mg/kg. In data set [2], the “Shortening of arrhythmia duration” value was 46 % of control. In addition, the “The increase of pupil widening in comparison with the control” value (from here on “The increase of pupil widening”) in data set [3] (after 15 min.) worked out at 52.7%; in data set [3] (after 30 min.), 36.1%; in data set [3] (after 60 min.), 19.4%. For the same compound, the inhibition at 4.9 µg/g in data set [4] (Cavia porcellus, dose 4.90 mcg/g of heart, read-out: (-)chronotropic (maximum)) was found to be 11%. The Systolic blood pressure in data set [5] (setting [7]) was 190 mm Hg; in data set [5] (setting [8]) it was 182 mm Hg; in data set [5] (setting [9]), 176 mm Hg; in data set [5] (setting [10]) it was 166 mm Hg; in data set [5] (setting [11]), 160 mm Hg; in data set [5] (setting [12]) it was 161 mm Hg.

With `CC(C)[C@H]1C(=O)N2CCC[C@H]2[C@]2(O)O[C@](NC(=O)[C@H]3C=C4c5cccc6[nH]cc(c56)C[C@H]4N(C)C3)(C(C)C)C(=O)N12` [ergocorninine], in data set [6], the “duration of long-duration hypertension” value is “more than 60 minutes” and the vasoconstrictory effect entry is listed as “vasoconstrictory effect”.

`CC(C)[C@@]1(NC(=O)[C@@H]2C=C3c4cccc5[nH]cc(c45)C[C@H]3N(C)C2)O[C@@]2(O)[C@@H]3CCCN3C(=O)[C@H](Cc3ccccc3)N2C1=O` [ergocristine methanesulfonate, reference compound] came in with an LD50 at 24 h in data set [1] of 234 mg/kg.

In the case of `CC(C)[C@@]1(NC(=O)[C@H]2C=C3c4cccc5[nH]cc(c45)C[C@H]3N(C)C2)O[C@@]2(O)[C@@H]3CCCN3C(=O)[C@H](Cc3ccccc3)N2C1=O` [ergocristinine methanesulfonate, Ergocristinine methanesulfonate], the LD50 at 24 h in data set [1] was > 600 mg/kg. In data set [2], the “Shortening of arrhythmia duration” value is given as 32 % of control. Further, the “The increase of pupil widening” value in data set [3] (after 15 min.) came to 48.7%; in data set [3] (after 30 min.), 10.3%; in data set [3] (after 60 min.), 2.5%. For the same compound, the activation at 4.98 µg/g in data set [4] (Cavia porcellus, dose 4.98 mcg/g of heart, read-out: (+)inotropic (maximum)) amounted to 9%. In data set [4] (Cavia porcellus, dose 4.98 mcg/g of heart, read-out: (-)chronotropic (maximum)), the inhibition at 4.98 µg/g turned out to be 12%. For the same compound, the Systolic blood pressure was 187 mm Hg in data set [5] (setting [7]); 183 mm Hg in data set [5] (setting [8]); 177 mm Hg in data set [5] (setting [9]); 169 mm Hg in data set [5] (setting [10]); 160 mm Hg in data set [5] (setting [11]); 152 mm Hg in data set [5] (setting [12]).

As to `CC(C)C[C@H]1C(=O)N2CCC[C@H]2[C@]2(O)O[C@](NC(=O)[C@@H]3C=C4c5cccc6[nH]cc(c56)C[C@H]4N(C)C3)(C(C)C)C(=O)N12` [ergocryptine methanesulfonate, reference compound], the LD50 at 24 h in data set [1] was 188 mg/kg.

With `CC(C)C[C@H]1C(=O)N2CCC[C@H]2[C@]2(O)O[C@](NC(=O)[C@H]3C=C4c5cccc6[nH]cc(c56)C[C@H]4N(C)C3)(C(C)C)C(=O)N12` [ergocryptinine methanesulfonate, Ergocryptinine methanesulfonate], in data set [1], the LD50 at 24 h was > 520 mg/kg. In data set [2], the “Shortening of arrhythmia duration” value is 63 % of control. Moreover, the “The increase of pupil widening” value in data set [3] (after 15 min.) turned out to be 117.4%; in data set [3] (after 30 min.), 91.6%; in data set [3] (after 60 min.) it was 32.2%. Further, in data set [4] (Cavia porcellus, dose 0.04 mcg/g of heart, read-out: (+)inotropic (maximum)), the activation at 0.04 µg/g stood at 111%. Further, in data set [4] (Cavia porcellus, dose 0.04 mcg/g of heart, read-out: (-)chronotropic (maximum)), the inhibition at 0.04 µg/g was found to be 21%. The Systolic blood pressure in data set [5] (setting [7]) turned out to be 189 mm Hg; in data set [5] (setting [8]), 181 mm Hg; in data set [5] (setting [9]) it was 176 mm Hg; in data set [5] (setting [10]), 168 mm Hg; in data set [5] (setting [11]), 161 mm Hg; in data set [5] (setting [12]), 160 mm Hg.

Regarding `CC(C)C[C@H]1C(=O)N2CCC[C@H]2[C@]2(O)O[C@](NC(=O)[C@H]3C=C4c5cccc6[nH]cc(c56)C[C@H]4N(C)C3)(C(C)C)C(=O)N12` [ergocryptinine], in data set [6], the “duration of long-duration hypertension” value was “more than 60 minutes” and the vasoconstrictory effect result is on record as “vasoconstrictory effect”. Further, the “mydriatic effect (in words)” value in data set [3] is “strongest mydriatic effect”. In addition, in data set [4] (isolated heart of guinea pig), the “effect on isolated heart (in words)” value was “qualitatively similar to that of ergotamine, ergosine and dihydroergotamine”; the “effect on the strength of heart contraction (in words)” value is on record as “quantitatively greater effect on the strength of heart contraction”.

In data set [1], `CC(C)C[C@H]1C(=O)N2CCC[C@H]2[C@]2(O)O[C@@](C)(NC(=O)[C@@H]3C=C4c5cccc6[nH]cc(c56)C[C@H]4N(C)C3)C(=O)N12` [ergosine methanesulfonate, reference compound] registered an LD50 at 24 h of 206 mg/kg. Besides, the “Shortening of arrhythmia duration” value in data set [2] is recorded as 84 % of control. The figures for the “The increase of pupil widening” value in data set [3] (after 15 min.), in data set [3] (after 30 min.) and in data set [3] (after 60 min.) were 115.6%, 110.5% and 39.7%, respectively. Besides, in data set [4] (Cavia porcellus, dose 0.57 mcg/g of heart, read-out: (+)inotropic (maximum)), the activation at 0.57 µg/g turned out to be 49%. Also, the inhibition at 0.57 µg/g in data set [4] (Cavia porcellus, dose 0.57 mcg/g of heart, read-out: (-)chronotropic (maximum)) was 17%. The Systolic blood pressure in data set [5] (setting [7]) turned out to be 188 mm Hg; in data set [5] (setting [8]), 183 mm Hg; in data set [5] (setting [9]), 178 mm Hg; in data set [5] (setting [10]), 176 mm Hg; in data set [5] (setting [11]) it was 175 mm Hg; in data set [5] (setting [12]), 177 mm Hg.

In data set [1], `CC(C)C[C@H]1C(=O)N2CCC[C@H]2[C@]2(O)O[C@@](C)(NC(=O)[C@H]3C=C4c5cccc6[nH]cc(c56)C[C@H]4N(C)C3)C(=O)N12` [ergosinine methanesulfonate, Ergosinine methanesulfonate] returned an LD50 at 24 h of 245 mg/kg. Moreover, the “Shortening of arrhythmia duration” value in data set [2] is given as 79 % of control. Further, the “The increase of pupil widening” value in data set [3] (after 15 min.) was found to be 135.0%; in data set [3] (after 30 min.), 122.5%; in data set [3] (after 60 min.), 32.5%. Further, the activation at 0.65 µg/g in data set [4] (Cavia porcellus, dose 0.65 mcg/g of heart, read-out: (+)inotropic (maximum)) was 103%. Also, the inhibition at 0.65 µg/g in data set [4] (Cavia porcellus, dose 0.65 mcg/g of heart, read-out: (-)chronotropic (maximum)) came out at 23%. The Systolic blood pressure is 180 mm Hg in data set [5] (setting [7]); 169 mm Hg in data set [5] (setting [8]); 152 mm Hg in data set [5] (setting [9]); 140 mm Hg in data set [5] (setting [10]); 141 mm Hg in data set [5] (setting [11]); 138 mm Hg in data set [5] (setting [12]).

`CN1C[C@H](C(=O)N[C@]2(C)O[C@@]3(O)[C@@H]4CCCN4C(=O)[C@H](Cc4ccccc4)N3C2=O)C=C2c3cccc4[nH]cc(c34)C[C@H]21` [ergotamine tartrate, reference compound] showed an LD50 at 24 h in data set [1] of 412 mg/kg. Also, the “Shortening of arrhythmia duration” value in data set [2] was 63 % of control. The figures for the “The increase of pupil widening” value in data set [3] (after 15 min.), in data set [3] (after 30 min.) and in data set [3] (after 60 min.) were 73.3%, 22.8% and 4.6%, respectively. Besides, the activation at 0.65 µg/g in data set [4] (Cavia porcellus, read-out: (+)inotropic (maximum)) amounted to 75%. Moreover, in data set [4] (Cavia porcellus, read-out: (-)chronotropic (maximum)), the inhibition at 0.65 µg/g came to 30%. Besides, the Systolic blood pressure in data set [5] (setting [7]) was found to be 179 mm Hg; in data set [5] (setting [8]), 174 mm Hg; in data set [5] (setting [9]) it was 170 mm Hg; in data set [5] (setting [10]), 172 mm Hg; in data set [5] (setting [11]), 173 mm Hg; in data set [5] (setting [12]), 172 mm Hg.

As a reminder, the LD50 is the dose at which mortality reaches 50%.
